From patent EP3574917A1, “ANTI-CANCER AGENT, METHOD FOR SCREENING FOR ANTI-CANCER AGENT, KIT FOR DETERMINATION OF EFFICACY ON CANCER, AND METHOD FOR DETERMINING EFFICACY ON CANCER” (University of Miyazaki, priority 2017, dated 2018)

Columns and labels:
Assay in all cases: cellular proliferative potential (cell counting kit-8)
Type in all cases: cell-based
[1] = tested on: HUT102; settings: HUT102 (NDRG2 hardly expressed), AdOX added to culture medium at start of culture, over time
Method: (§1) In the following Examples, HTLV-1-uninfected T-cell lymphocytic acute leukemia T-ALL (Jurkat and MOLT4), an HTLV-1-infected cell line (HUT102), an ATLL cell line (KOB), an osteosarcoma cell line (U2OS), and a uterine cancer cell line (HeLa) were used as cell lines. The cell lines described above were cultured in a RPM11640 or DMEM culture solution, to which 10% fetal bovine serum (FBS) supplemented or unsupplemented with IL2 (50 U/mL) was added, under 5% carbon dioxide at 37°C.
(§2) For each established cell line, 2 ×10^3 cells were cultured on a 96-well plate, and cell counting kit-8 (manufactured by DOJINDO CO., LTD) was added at a predetermined time. The number of cells was quantified based on an absorbance of 450 nm or 490 nm, to evaluate cellular proliferative potential.
(§3) In addition to HUT102 and KOB, Jurkat and MOLT4 were cultured. At the time of the start of the culture, AdOX (manufactured by Sigma-Aldrich Co. LLC) as a PRMT5 inhibitor was added to each culture medium. Like the Examples 2 described above, cellular proliferative potential was evaluated.

[2] = tested on: Jurkat; settings: without the decreased expression of NDRG2, AdOX added at start of culture
Method: as §1, §2, §3

[3] = tested on: KOB; settings: KOB (NDRG2 hardly expressed), AdOX added to culture medium at start of culture, over time
Method: as §1, §2, §3

[4] = tested on: MOLT4; settings: MOLT4, without the decreased expression of NDRG2, AdOX added at start of culture
Method: as §1, §2, §3

[5] = tested on: HeLa; settings: HeLa (NDRG2 hardly expressed), in the presence of AdOX, over time
Method: as §1, §2
(§4) In the cell lines of a solid cancer, the influence of the decreased expression of a PRMT5 gene was also evaluated in a manner similar to the manner of Example 2. The cellular proliferative potential of the parent lines, shluc cell lines, shPRMT5-3 cell lines, and shPRMT5-4 cell lines of U2OS and HeLa, and an influence on the cellular proliferative potential of a PRMT inhibitor were evaluated.

[6] = tested on: U2OS; settings: U2OS (NDRG2 hardly expressed), in the presence of AdOX, over time
Method: as §1, §2, §4

Nc1ncnc2c1ncn2[C@@H](C=O)O[C@@H](C=O)CO [AdOX, adenosine-2',3'-dialdehyde]
suppression of cell proliferation [1]: exhibited the suppression of cell proliferation in concentration-dependent manners | suppression of cell proliferation [2]: not observed | suppression of cell proliferation [3]: exhibited the suppression of cell proliferation in concentration-dependent manners | suppression of cell proliferation [4]: not observed | suppression of cell proliferation [5]: suppressed cell proliferation in a concentration-dependent manner | suppression of cell proliferation [6]: suppressed cell proliferation in a concentration-dependent manner
